# Measurements reported in US12486290B2, “Isoindolinone and indazole compounds for the degradation of EGFR” (C4 THERAPEUTICS, INC., priority 2019, dated 2025).
# Target: T1, EGFR T790M/L858R (NCI-H1975 cells) (Homo sapiens, UniProt P00533, L858R/T790M)
# T1 construct: NCI-H1975 (harboring EGFR heterozygous T790M/L858R mutations); host or cells: NCI-H1975
# Test: EGFR (L858R) degradation analysis, Total EGFR (L858R) HTRF, NCI-H1975 cells
# Format: cell-based
# Conditions: 6 hours
# Excerpt: (§1) NCI-H1975 (harboring EGFR heterozygous T790M/L858R mutations) and NCI-H3255 (harboring EGFR heterozygous L858R mutation) were purchased from ATCC and NCI, respectively. NCI-H1975+CS (harboring EGFR heterozygous T/790M/L858R/C797S mutations) was generated using CRISPR technology to introduce the additional C797S mutation by Horizon Discovery. RPMI 1640 no-phenol red medium and fetal bovine serum (FBS) were purchased from Gibco (Grand Island, NY, USA). Cell culture flasks and 384-well microplates were acquired from VWR (Radnor, PA, USA). Total EGFR (L858R) HTRF assay kits were purchased from Cisbio (Bedford, MA, USA).
# (§2) Degradation of EGFR protein containing L858R mutation was determined based on quantification of FRET signal using Total EGFR (L858R) HTRF assay kit. Test compounds were added to the 384-well plate from a top concentration of 10 μM with 11 points, half log titration in duplicates. NCI-H1975, NCI-H1975+CS or NCI-H3255 cells were added into 384-well plates at a cell density of 10000, 10000 or 1000 cells per well, respectively. The plates were kept at 37° C. with 5% CO2 for 6 hours. Cells treated in the absence of the test compound were the negative control. Positive control was set by wells containing all reagents but no cells. FRET signal was acquired on EnVision™ Multilabel Reader (PerkinElmer, Santa Clara, CA, USA).
# T1 sequence (P00533 25-1210 T790M/L858R): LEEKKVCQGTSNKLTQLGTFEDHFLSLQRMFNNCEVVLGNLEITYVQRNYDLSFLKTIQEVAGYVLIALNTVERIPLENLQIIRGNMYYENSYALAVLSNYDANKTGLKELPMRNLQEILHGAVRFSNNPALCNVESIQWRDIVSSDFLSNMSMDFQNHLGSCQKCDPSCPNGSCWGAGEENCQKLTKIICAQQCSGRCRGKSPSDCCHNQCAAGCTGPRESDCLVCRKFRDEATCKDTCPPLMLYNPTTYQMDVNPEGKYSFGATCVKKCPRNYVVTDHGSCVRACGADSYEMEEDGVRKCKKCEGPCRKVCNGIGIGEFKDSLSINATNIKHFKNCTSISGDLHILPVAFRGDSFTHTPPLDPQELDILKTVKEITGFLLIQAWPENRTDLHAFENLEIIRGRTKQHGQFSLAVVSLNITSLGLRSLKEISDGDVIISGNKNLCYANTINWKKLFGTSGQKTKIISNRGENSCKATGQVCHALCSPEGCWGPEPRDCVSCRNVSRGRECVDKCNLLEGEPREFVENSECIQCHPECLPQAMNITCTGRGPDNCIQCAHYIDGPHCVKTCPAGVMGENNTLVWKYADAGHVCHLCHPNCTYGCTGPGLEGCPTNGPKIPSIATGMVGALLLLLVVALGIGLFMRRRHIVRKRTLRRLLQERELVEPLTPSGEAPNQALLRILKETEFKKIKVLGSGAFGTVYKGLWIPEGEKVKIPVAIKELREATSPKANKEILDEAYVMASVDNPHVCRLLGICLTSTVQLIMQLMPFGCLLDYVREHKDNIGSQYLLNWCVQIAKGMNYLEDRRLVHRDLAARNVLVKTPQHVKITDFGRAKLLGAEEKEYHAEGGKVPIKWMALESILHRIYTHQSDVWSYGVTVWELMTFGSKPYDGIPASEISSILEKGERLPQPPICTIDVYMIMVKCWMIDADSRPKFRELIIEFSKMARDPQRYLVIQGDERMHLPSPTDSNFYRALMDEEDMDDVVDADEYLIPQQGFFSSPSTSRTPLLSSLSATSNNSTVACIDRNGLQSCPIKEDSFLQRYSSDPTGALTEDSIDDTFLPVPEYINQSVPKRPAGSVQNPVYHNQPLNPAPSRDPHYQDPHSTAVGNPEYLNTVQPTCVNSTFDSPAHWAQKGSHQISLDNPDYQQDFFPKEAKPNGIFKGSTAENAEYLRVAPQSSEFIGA
row,DC50 [nM],Compound
1,11,"Cn1nc(N2CCC(=O)NC2=O)c2ccc(C3CCN(CC(=O)N4CC5(C4)CN(c4ccc(-c6cc(F)c7c(c6)C(=O)N(C(C(=O)Nc6ccccn6)c6ncn8c6CCC8)C7)cc4)C5)CC3(F)F)cc21 (stereo not shown) [Compound 55, 2-(6,7-dihydro-5H-pyrrolo[1,2-c]imidazol-1-yl)-2-[6-[4-[2-[2-[4-[3-(2,4-dioxohexahydropyrimidin-1-yl)-1-methyl-indazol-6-yl]-3,3-difluoro-1-piperidyl]acetyl]-2,6-diazaspiro[3.3]heptan-6-yl]phenyl]-4-fluoro-1-oxo-isoindolin-2-yl]-N-(2-pyridyl)acetamide]"
2,137,"O=C1CCC(Nc2ccc(C3CCN(CC(=O)N4CCN(c5ccc(-c6cc(F)c7cn(C(C(=O)Nc8nccs8)c8ncn9c8CCC9)nc7c6)cn5)CC4)CC3)c(F)c2)C(=O)N1 (stereo not shown) [Compound 64, 2-(6,7-dihydro-5H-pyrrolo[1,2-c]imidazol-1-yl)-2-[6-[6-[4-[2-[4-[4-[(2,6-dioxo-3-piperidyl)amino]-2-fluoro-phenyl]-1-piperidyl]acetyl]piperazin-1-yl]-3-pyridyl]-4-fluoro-indazol-2-yl]-N-thiazol-2-yl-acetamide]"
3,36,"O=C1CCC(Nc2ccc(C3CCN(CC(=O)N4CCN(c5ccc(-c6cc(F)c7cn(C(C(=O)Nc8nccs8)c8ncn9c8CCC9)nc7c6)cn5)CC4)CC3)cc2)C(=O)N1 (stereo not shown) [Compound 65, 2-(6,7-dihydro-5H-pyrrolo[1,2-c]imidazol-1-yl)-2-[6-[6-[4-[2-[4-[4-[(2,6-dioxo-3-piperidyl)amino]phenyl]-1-piperidyl]acetyl]piperazin-1-yl]-3-pyridyl]-4-fluoro-indazol-2-yl]-N-thiazol-2-yl-acetamide]"

# Second part, the compound before the results:
row,Compound,DC50 [nM]
1,"O=C1CC[C@H](Nc2ccc(C3CCN(CC(=O)N4CCC(NC(=O)c5ccc(C#Cc6cc(F)c7c(c6)C(=O)N(C(C(=O)Nc6nccs6)c6ncn8c6CCC8)C7)cn5)CC4)CC3)c(F)c2)C(=O)N1 (stereo partly drawn) [Compound 4, 5-[2-[2-[1-(6,7-dihydro-5H-pyrrolo[1,2-c]imidazol-1-yl)-2-oxo-2-(thiazol-2-ylamino)ethyl]-7-fluoro-3-oxo-isoindolin-5-yl]ethynyl]-N-[1-[2-[4-[4-[[(3S)-2,6-dioxo-3-piperidyl]amino]-2-fluoro-phenyl]-1-piperidyl]acetyl]-4-piperidyl]pyridine-2-carboxamide]",10
2,"O=C1NC(=O)C2(Nc3ccc(C4CCN(CC(=O)N5CCC(Oc6ccc(-c7cc(F)c8c(c7)C(=O)N(C(C(=O)Nc7nccs7)c7ncn9c7CCC9)C8)cc6)CC5)CC4)cc3)CC1C2 (stereo not shown) [Compound 38, 2-(6,7-dihydro-5H-pyrrolo[1,2-c]imidazol-1-yl)-2-(6-(4-((1-(2-(4-(4-((2,4-dioxo-3-azabicyclo[3.1.1]heptan-1-yl)amino)phenyl)piperidin-1-yl)acetyl)piperidin-4-yl)oxy)phenyl)-4-fluoro-1-oxoisoindolin-2-yl)-N-(thiazol-2-yl)acetamide]",52
3,"O=C1CC[C@H](Nc2ccc(C3CCN(CC(=O)N4CCC(Oc5ccc(-c6cc(F)c7c(c6)C(=O)N(C(C(=O)Nc6nccs6)c6ncn8c6CCC8)C7)cc5)CC4)CC3)c(F)c2)C(=O)N1 (stereo partly drawn) [Compound 39, 2-(6,7-dihydro-5H-pyrrolo[1,2-c]imidazol-1-yl)-2-(6-(4-((1-(2-(4-(4-(((S)-2,6-dioxopiperidin-3-yl)amino)-2-fluorophenyl)piperidin-1-yl)acetyl)piperidin-4-yl)oxy)phenyl)-4-fluoro-1-oxoisoindolin-2-yl)-N-(thiazol-2-yl)acetamide]",88
4,"O=C1CC[C@H](Nc2ccc(C3CCN(CC(=O)N4CC[C@@H](Oc5ccc(-c6cc(F)c7c(c6)C(=O)N(C(C(=O)Nc6nccs6)c6ncn8c6CCC8)C7)cc5)C4)CC3)cc2)C(=O)N1 (stereo partly drawn) [Compound 41, 2-(6,7-dihydro-5H-pyrrolo[1,2-c]imidazol-1-yl)-2-[6-[4-[(3R)-1-[2-[4-[4-[[(3S)-2,6-dioxo-3-piperidyl]amino]phenyl]-1-piperidyl]acetyl]pyrrolidin-3-yl]oxyphenyl]-4-fluoro-1-oxo-isoindolin-2-yl]-N-thiazol-2-yl-acetamide]",26
5,"O=C1CC[C@H](Nc2ccc(C3CCN(CC(=O)N4CC[C@H](Oc5ccc(-c6cc(F)c7c(c6)C(=O)N(C(C(=O)Nc6nccs6)c6ncn8c6CCC8)C7)cc5)C4)CC3)cc2)C(=O)N1 (stereo partly drawn) [Compound 42, 2-(6,7-dihydro-5H-pyrrolo[1,2-c]imidazol-1-yl)-2-[6-[4-[(3S)-1-[2-[4-[4-[[(3S)-2,6-dioxo-3-piperidyl]amino]phenyl]-1-piperidyl]acetyl]pyrrolidin-3-yl]oxyphenyl]-4-fluoro-1-oxo-isoindolin-2-yl]-N-thiazol-2-yl-acetamide]",20
6,"Cn1nc(N2CCC(=O)NC2=O)c2ccc(C3CCN(CC(=O)N4CC5(C4)CN(c4ccc(-c6cc(F)c7c(c6)C(=O)N(C(C(=O)Nc6nccs6)c6ncn8c6CCC8)C7)cc4)C5)CC3(F)F)cc21 (stereo not shown) [Compound 50, 2-(6,7-dihydro-5H-pyrrolo[1,2-c]imidazol-1-yl)-2-[6-[4-[2-[2-[4-[3-(2,4-dioxohexahydropyrimidin-1-yl)-1-methyl-indazol-6-yl]-3,3-difluoro-1-piperidyl]acetyl]-2,6-diazaspiro[3.3]heptan-6-yl]phenyl]-4-fluoro-1-oxo-isoindolin-2-yl]-N-thiazol-2-yl-acetamide]",10
7,"Cn1nc(N2CCC(=O)NC2=O)c2ccc(C3CCN(CC(=O)N4CC5(C4)CN(c4ccc(-c6cc(F)c7c(c6)C(=O)N(C(C(=O)Nc6ccccn6)c6ncn8c6CCC8)C7)cc4)C5)CC3)cc21 (stereo not shown) [Compound 54, 2-(6,7-dihydro-5H-pyrrolo[1,2-c]imidazol-1-yl)-2-[6-[4-[2-[2-[4-[3-(2,4-dioxohexahydropyrimidin-1-yl)-1-methyl-indazol-6-yl]-1-piperidyl]acetyl]-2,6-diazaspiro[3.3]heptan-6-yl]phenyl]-4-fluoro-1-oxo-isoindolin-2-yl]-N-(2-pyridyl)acetamide]",16

# Same assay, conditions: 6 hours, class symbols
row,DC50 [nM],Compound
1,50 to 150,"O=C1CCC(Nc2cc(F)c(N3CCC(O)(CC(=O)N4CCC5(CC4)CN(c4ccc(-c6cc(F)c7c(c6)C(=O)N(C(C(=O)Nc6nccs6)c6ncn8c6CCC8)C7)cc4)C5)CC3)c(F)c2)C(=O)N1 (stereo not shown) [Compound 137, 2-(6,7-dihydro-5H-pyrrolo[1,2-c]imidazol-1-yl)-2-[6-[4-[7-[2-[1-[4-[[2,6-dioxo-3-piperidyl]amino]-2,6-difluoro-phenyl]-4-hydroxy-4-piperidyl]acetyl]-2,7-diazaspiro[3.5]nonan-2-yl]phenyl]-4-fluoro-1-oxo-isoindolin-2-yl]-N-thiazol-2-yl-acetamide]"
2,50 to 150,"O=C1CCC(Nc2cc(F)c(N3CCC(O)(CC(=O)N4CC5(C4)CN(c4ccc(-c6cc(F)c7c(c6)C(=O)N(C(C(=O)Nc6nccs6)c6ncn8c6CCC8)C7)cc4)C5)CC3)c(Cl)c2)C(=O)N1 (stereo not shown) [Compound 145, 2-[6-[4-[2-[2-[1-[2-chloro-4-[[2,6-dioxo-3-piperidyl]amino]-6-fluoro-phenyl]-4-hydroxy-4-piperidyl]acetyl]-2,6-diazaspiro[3.3]heptan-6-yl]phenyl]-4-fluoro-1-oxo-isoindolin-2-yl]-2-(6,7-dihydro-5H-pyrrolo[1,2-c]imidazol-1-yl)-N-thiazol-2-yl-acetamide]"
3,< 50,"O=C1CC[C@H](Nc2ccc(N3CCC(O)(C(=O)N4CC5(C4)CN(c4ccc(-c6cc(F)c7c(c6)C(=O)N(C(C(=O)Nc6nccs6)c6ncn8c6CCC8)C7)cc4)C5)CC3)c(F)c2)C(=O)N1 (stereo partly shown) [Compound 146, 2-(6,7-dihydro-5H-pyrrolo[1,2-c]imidazol-1-yl)-2-[6-[4-[2-[1-[4-[[2,6-dioxo-3-piperidyl]amino]-2-fluoro-phenyl]-4-hydroxy-piperidine-4-carbonyl]-2,6-diazaspiro[3.3]heptan-6-yl]phenyl]-4-fluoro-1-oxo-isoindolin-2-yl]-N-thiazol-2-yl-acetamide]"
4,50 to 150,"O=C1CCC(c2ccc(N3CCC(O)(CC(=O)N4CC5(CCN(c6ccc(-c7cc(F)c8c(c7)C(=O)N(C(C(=O)Nc7nccs7)c7ncn9c7CCC9)C8)cc6)CC5)C4)CC3)c(F)c2)C(=O)N1 (stereo not shown) [Compound 159, 2-(6,7-dihydro-5H-pyrrolo[1,2-c]imidazol-1-yl)-2-[6-[4-[2-[2-[1-[4-(2,6-dioxo-3-piperidyl)-2-fluoro-phenyl]-4-hydroxy-4-piperidyl]acetyl]-2,7-diazaspiro[3.5]nonan-7-yl]phenyl]-4-fluoro-1-oxo-isoindolin-2-yl]-N-thiazol-2-yl-acetamide]"
5,50 to 150,"O=C1CCC(c2ccc(N3CCC(O)(CC(=O)N4CCC5(CC4)CN(c4ccc(-c6cc(F)c7c(c6)C(=O)N(C(C(=O)Nc6nccs6)c6ncn8c6CCC8)C7)cc4)C5)CC3)c(F)c2)C(=O)N1 (stereo not shown) [Compound 160, 2-(6,7-dihydro-5H-pyrrolo[1,2-c]imidazol-1-yl)-2-[6-[4-[7-[2-[1-[4-(2,6-dioxo-3-piperidyl)-2-fluoro-phenyl]-4-hydroxy-4-piperidyl]acetyl]-2,7-diazaspiro[3.5]nonan-2-yl]phenyl]-4-fluoro-1-oxo-isoindolin-2-yl]-N-thiazol-2-yl-acetamide]"

# Target: T2, EGFR L858R (NCI-H3255 cells) (Homo sapiens, UniProt P00533, L858R)
# T2 construct: NCI-H3255 (harboring EGFR heterozygous L858R mutation); host or cells: NCI-H3255
# T2 sequence (P00533 25-1210 L858R): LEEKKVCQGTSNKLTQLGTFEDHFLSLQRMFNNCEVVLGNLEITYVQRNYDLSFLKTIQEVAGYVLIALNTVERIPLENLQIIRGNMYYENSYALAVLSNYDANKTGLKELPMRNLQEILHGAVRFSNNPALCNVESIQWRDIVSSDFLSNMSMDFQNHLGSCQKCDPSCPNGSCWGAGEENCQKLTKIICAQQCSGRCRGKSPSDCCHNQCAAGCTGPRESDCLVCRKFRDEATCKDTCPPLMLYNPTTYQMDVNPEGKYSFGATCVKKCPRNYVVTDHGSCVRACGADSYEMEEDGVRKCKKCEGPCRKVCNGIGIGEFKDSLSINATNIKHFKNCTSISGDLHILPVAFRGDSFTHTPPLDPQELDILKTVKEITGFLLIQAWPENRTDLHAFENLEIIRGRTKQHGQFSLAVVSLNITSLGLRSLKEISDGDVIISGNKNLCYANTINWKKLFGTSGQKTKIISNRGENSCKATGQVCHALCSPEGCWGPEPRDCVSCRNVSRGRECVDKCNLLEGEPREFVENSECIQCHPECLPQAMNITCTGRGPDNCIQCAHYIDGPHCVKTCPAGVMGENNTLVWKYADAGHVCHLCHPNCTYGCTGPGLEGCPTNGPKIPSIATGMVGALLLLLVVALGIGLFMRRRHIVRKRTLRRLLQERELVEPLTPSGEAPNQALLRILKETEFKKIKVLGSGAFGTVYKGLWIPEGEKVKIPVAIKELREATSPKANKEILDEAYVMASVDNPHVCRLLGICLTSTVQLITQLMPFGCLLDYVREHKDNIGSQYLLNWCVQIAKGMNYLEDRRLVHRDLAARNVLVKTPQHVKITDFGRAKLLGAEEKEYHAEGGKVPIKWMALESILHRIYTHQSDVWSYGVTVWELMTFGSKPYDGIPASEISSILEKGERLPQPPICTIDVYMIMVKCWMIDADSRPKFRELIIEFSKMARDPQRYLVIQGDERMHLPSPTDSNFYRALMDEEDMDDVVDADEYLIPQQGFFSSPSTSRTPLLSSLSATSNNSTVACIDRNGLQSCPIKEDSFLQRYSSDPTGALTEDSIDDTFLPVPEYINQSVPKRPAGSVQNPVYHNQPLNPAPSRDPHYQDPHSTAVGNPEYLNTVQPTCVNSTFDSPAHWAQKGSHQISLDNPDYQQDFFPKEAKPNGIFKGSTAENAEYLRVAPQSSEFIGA
# Test: EGFR (L858R) degradation analysis, Total EGFR (L858R) HTRF, NCI-H3255 cells
# Format: cell-based
# Conditions: 6 hours
# Excerpt: as §1, §2
row,DC50 [nM],Compound
1,9,"O=C1CC[C@H](Nc2ccc(C3CCN(CC(=O)N4CCC(NC(=O)c5ccc(C#Cc6cc(F)c7c(c6)C(=O)N(C(C(=O)Nc6nccs6)c6ncn8c6CCC8)C7)cn5)CC4)CC3)c(F)c2)C(=O)N1 (stereo partly drawn) [Compound 4, 5-[2-[2-[1-(6,7-dihydro-5H-pyrrolo[1,2-c]imidazol-1-yl)-2-oxo-2-(thiazol-2-ylamino)ethyl]-7-fluoro-3-oxo-isoindolin-5-yl]ethynyl]-N-[1-[2-[4-[4-[[(3S)-2,6-dioxo-3-piperidyl]amino]-2-fluoro-phenyl]-1-piperidyl]acetyl]-4-piperidyl]pyridine-2-carboxamide]"
